Columns and labels:
Assay type in all cases: in vivo
[1] = system: LC3 protein fused to ZsGreen under the control of a skeletal muscle specific promoter; assay: zebrafish autophagy reporter, number of LC3 punctae in larvae; conditions: for effect on basal autophagy: summary statement referring to the experimental data; for autophagy activation by individual amino acids (FIG. 1) / autophagy activation by individual amino acids (FIG. 3) / autophagy activation by individual amino acids (FIG. 2): zebrafish larvae, 0.25 to 10 mM, 16 hours of treatment
From the text: Z stack images were captured for each larva and maximal projection images were produced. Number of LC3 punctae have been calculated with MetaXpress software (Moleculare Devices) and normalized by fish area.

bone mineral density = bone mineral density in old mice after 3 months; conditions: old mice (78 weeks old), thymol by gavage, AA mix in water, FIG. 6a
From the text: (§1) Assessment of the long term (3 months) effect of thymol (an exemplary autophagy-inducing agent) and an amino acid mix, known as autophagy inducers, alone or in combination, on muscle function in old mice. […] Old mice (78 weeks old; n=12/group; inventions) were taking 1) thymol (compound 1); 2) an amino acid (AA) mix and thymol (compounds 2 and 1); or 3) the AA mix (compound 2). In the experiments, thymol was given by gavage; the AA mix was given in water; and alanine for isonitrogenous was given as a control to young mice (Adult). Old untreated mice were also used as another control (old untreated). The AA mix comprises 28.67% of Leucine, 14.29% of Isoleucine, 14.29% of Valine, 12.21% of Proline, 12.21% of Glycine, 14.84% of Lysine and 3.48% of Cysteine (See Table 1).

bone stiffness = bone stiffness (bone strength) in old mice after 3 months; conditions: old mice (78 weeks old), thymol by gavage, AA mix in water, FIG. 6b
From the text: as §1

SMILES	effect on basal autophagy [1]	autophagy activation by individual amino acids (FIG. 1) [1]	autophagy activation by individual amino acids (FIG. 2) [1]	also measured
N=C(N)NCCC[C@H](N)C(=O)O [Arginine]	reduce basal autophagy	show at least some autophagy activation effects	–	autophagy activation by individual amino acids (FIG. 3) [1]: shows less autophagy activation effects
NC(=O)C[C@H](N)C(=O)O [Asparagine]	–	show at least some autophagy activation effects	–	–
N[C@@H](CS)C(=O)O [Cysteine]	–	show at least some autophagy activation effects	show autophagy activation effects	–
N[C@@H](CCC(=O)O)C(=O)O [Glutamate]	–	show at least some autophagy activation effects	–	autophagy activation by individual amino acids (FIG. 3) [1]: show clear autophagy activation effects
NC(=O)CC[C@H](N)C(=O)O [Glutamine]	reduce basal autophagy	–	–	–
NCC(=O)O [Glycine]	–	show at least some autophagy activation effects	show autophagy activation effects	–
CC[C@H](C)[C@H](N)C(=O)O [Isoleucine]	reduce basal autophagy	–	–	–
CC(C)C[C@H](N)C(=O)O [Leucine]	reduce basal autophagy	–	does not show any autophagy activation effect	–
N[C@@H](Cc1ccccc1)C(=O)O [Phenylalanine]	–	show at least some autophagy activation effects	–	–
O=C(O)[C@@H]1CCCN1 [Proline]	–	show at least some autophagy activation effects	–	autophagy activation by individual amino acids (FIG. 3) [1]: show clear autophagy activation effects
N[C@@H](Cc1ccc(O)cc1)C(=O)O [Tyrosine]	–	show at least some autophagy activation effects	–	–
CC(C)[C@H](N)C(=O)O [Valine]	–	show at least some autophagy activation effects	show autophagy activation effects	–
Cc1ccc(C(C)C)c(O)c1 [thymol]	–	–	–	increase in bone mineral density as compared with the control of the old untreated (bone mineral density): 1.6%; increase in bone stiffness as compared with the control of the old untreated (bone stiffness): 12%
